Where two headings read alike, the source gives them in different places.
Columns and labels:
HL-60 = assay: MTT cell viability assay; conditions: Homo sapiens, HL-60, 72 h
HeLa = assay: MTT cell viability assay; conditions: Homo sapiens, 72 h
Karpas-299 = assay: MTT cell viability assay; conditions: Homo sapiens, KARPAS-299, 72 h
MCF-7 = assay: MTT cell viability assay; conditions: Homo sapiens, MCF7, 72 h
[1] = tested on: Wnt/β-catenin signaling in STF3a cells; assay: STF3a SuperTopFlash luciferase reporter assay; format: cell-based; conditions: 24 h
Method: The cell line STF3a, which stably expresses both the STF (SuperTopFlash) luciferase reporter promoter and the wnt3a gene was used to determine whether SKLB-677 can block the Wnt/β-catenin signaling. […]. […] Here we can conclude that the SKLB-677-mediated blockade of Wnt/β-catenin signaling is not due to FLT3 inhibition. We then examined whether the first-generation FLT3 inhibitors could inhibit Wnt/β-catenin signaling. […].
STF3a cells (8 × 10^3) were seeded overnight in 96-well plates (triplicate wells per treatment). Cells were treated with 0.1% DMSO or tested compounds for 24 h with Luciferase assay system (Promega) performed according to the manufacturer’s instructions. […] The reporter activity was expressed as relative values compared with vehicle control.
Figure 3 Effects of SKLB-677 on Wnt/β-catenin signaling. […]. All data points are means of triplicates ± SD. ns, not statistically significant, **P < 0.01, ***P < 0.005 among groups. […]. (c) STF3a cells were incubated with various concentrations of SKLB-677 for 24 h.The cell lysates were detected using the antibodies against S33/37/T41 Non-phospho β-catenin (active β-catenin), and total β-catenin (β-catenin). (d) STF3a cells were treated with indicated concentrations of SKLB-677 for 24 h. MYC, CCND1, and NKD1 mRNA expressions were determined through real-time qPCR analysis. All samples were normalized to the level of GAPDH (mean ± SEM from triplicate reactions). *P < 0.05, **P < 0.01, ***P < 0.005. (e) Representative images of zebrafish embryos at 24hpf with tail formation after incubation with various concentrations of SKLB-677 for 20 h. (f) Zebrafish embryos were injected with wnt8.1 mRNA (30 pg) or vehicle mRNA (phaenotype control). […]. Results shown in the histogram are expressed as the percentage of embryos in each phenotypic class after the treatment (n > 70). Class 1: wild-type, class 2: posteriorized, resulting in the loss of the eyes, and class 3: more severely posteriorized, as evidenced by head truncation.

BEL7402 = assay: MTT cell viability assay; conditions: Homo sapiens, Bel-7402, 72 h
U266 = assay: MTT cell viability assay; conditions: Homo sapiens, U-266, 72 h
Raji = assay: MTT cell viability assay; conditions: Homo sapiens, 72 h
SMMC7721 = assay: MTT cell viability assay; conditions: Homo sapiens, SMMC-7721, 72 h
MV4-11 = assay: MTT cell viability assay; conditions: Homo sapiens, MV4-11, 72 h
A549 = assay: MTT cell viability assay; conditions: Homo sapiens, A549, 72 h
Jurkat = assay: MTT cell viability assay; conditions: Homo sapiens, 72 h
TESK1 = target: T1, TESK1 (Homo sapiens, UniProt Q15569); assay: KINOMEscan panel screen; format: binding; conditions: read-out: Percent Control(%)
T1 construct: purchased DiscoveRx KINOMEscan (Ambit Biosciences)

MAP4K5 = target: T2, MAP4K5 (Homo sapiens, UniProt Q9Y4K4); assay: KINOMEscan panel screen; format: binding; conditions: read-out: Percent Control(%)
T2 construct: purchased DiscoveRx KINOMEscan (Ambit Biosciences)

Miapaca-2 = assay: MTT cell viability assay; conditions: Homo sapiens, MIA PaCa-2, 72 h
CDK7 = target: T3, CDK7 (Homo sapiens, UniProt P50613); assay: KINOMEscan panel screen; format: binding; conditions: read-out: Percent Control(%)
T3 construct: purchased DiscoveRx KINOMEscan (Ambit Biosciences)

EPHB3 = target: T4, EPHB3 (Homo sapiens, UniProt P54753); assay: KINOMEscan panel screen; format: binding; conditions: read-out: Percent Control(%)
T4 construct: purchased DiscoveRx KINOMEscan (Ambit Biosciences)

MAP3K1 = target: T5, MAP3K1 (Homo sapiens, UniProt Q13233); assay: KINOMEscan panel screen; format: binding; conditions: read-out: Percent Control(%)
T5 construct: purchased DiscoveRx KINOMEscan (Ambit Biosciences)

EPHA3 = target: T6, EPHA3 (Homo sapiens, UniProt P29320); assay: KINOMEscan panel screen; format: binding; conditions: read-out: Percent Control(%)
T6 construct: purchased DiscoveRx KINOMEscan (Ambit Biosciences)

NEK11 = target: T7, NEK11 (Homo sapiens, UniProt Q8NG66); assay: KINOMEscan panel screen; format: binding; conditions: read-out: Percent Control(%)
T7 construct: purchased DiscoveRx KINOMEscan (Ambit Biosciences)

NEK3 = target: T8, NEK3 (Homo sapiens, UniProt P51956); assay: KINOMEscan panel screen; format: binding; conditions: read-out: Percent Control(%)
T8 construct: purchased DiscoveRx KINOMEscan (Ambit Biosciences)

EIF2AK1 = target: T9, EIF2AK1 (Homo sapiens, UniProt Q9BQI3); assay: KINOMEscan panel screen; format: binding; conditions: read-out: Percent Control(%)
T9 construct: purchased DiscoveRx KINOMEscan (Ambit Biosciences)

ITK = target: T10, ITK (Homo sapiens, UniProt Q08881); assay: KINOMEscan panel screen; format: binding; conditions: read-out: Percent Control(%)
T10 construct: purchased DiscoveRx KINOMEscan (Ambit Biosciences)

YANK2 = target: T11, YANK2 (Homo sapiens, UniProt Q9NY57); assay: KINOMEscan panel screen; format: binding; conditions: read-out: Percent Control(%)
T11 construct: purchased DiscoveRx KINOMEscan (Ambit Biosciences)

QSK = target: T12, QSK (Homo sapiens, UniProt Q9Y2K2); assay: KINOMEscan panel screen; format: binding; conditions: read-out: Percent Control(%)
T12 construct: purchased DiscoveRx KINOMEscan (Ambit Biosciences)

CLK1 = target: T13, CLK1 (Homo sapiens, UniProt P49759); assay: KINOMEscan panel screen; format: binding; conditions: read-out: Percent Control(%)
T13 construct: purchased DiscoveRx KINOMEscan (Ambit Biosciences)

MEK6 = target: T14, MEK6 (Homo sapiens, UniProt P52564); assay: KINOMEscan panel screen; format: binding; conditions: read-out: Percent Control(%)
T14 construct: purchased DiscoveRx KINOMEscan (Ambit Biosciences)

CAMK1G = target: T15, CAMK1G (Homo sapiens, UniProt Q96NX5); assay: KINOMEscan panel screen; format: binding; conditions: read-out: Percent Control(%)
T15 construct: purchased DiscoveRx KINOMEscan (Ambit Biosciences)

INSRR = target: T16, INSRR (Homo sapiens, UniProt P14616); assay: KINOMEscan panel screen; format: binding; conditions: read-out: Percent Control(%)
T16 construct: purchased DiscoveRx KINOMEscan (Ambit Biosciences)

CDK4-cyclinD3 = target: T17, CDK4-cyclinD3 (Homo sapiens, UniProt P11802); assay: KINOMEscan panel screen; format: binding; conditions: read-out: Percent Control(%)
T17 construct: purchased DiscoveRx KINOMEscan (Ambit Biosciences)

PRKCH = target: T18, PRKCH (Homo sapiens, UniProt P24723); assay: KINOMEscan panel screen; format: binding; conditions: read-out: Percent Control(%)
T18 construct: purchased DiscoveRx KINOMEscan (Ambit Biosciences)

T2 sequence (Q9Y4K4 whole entry): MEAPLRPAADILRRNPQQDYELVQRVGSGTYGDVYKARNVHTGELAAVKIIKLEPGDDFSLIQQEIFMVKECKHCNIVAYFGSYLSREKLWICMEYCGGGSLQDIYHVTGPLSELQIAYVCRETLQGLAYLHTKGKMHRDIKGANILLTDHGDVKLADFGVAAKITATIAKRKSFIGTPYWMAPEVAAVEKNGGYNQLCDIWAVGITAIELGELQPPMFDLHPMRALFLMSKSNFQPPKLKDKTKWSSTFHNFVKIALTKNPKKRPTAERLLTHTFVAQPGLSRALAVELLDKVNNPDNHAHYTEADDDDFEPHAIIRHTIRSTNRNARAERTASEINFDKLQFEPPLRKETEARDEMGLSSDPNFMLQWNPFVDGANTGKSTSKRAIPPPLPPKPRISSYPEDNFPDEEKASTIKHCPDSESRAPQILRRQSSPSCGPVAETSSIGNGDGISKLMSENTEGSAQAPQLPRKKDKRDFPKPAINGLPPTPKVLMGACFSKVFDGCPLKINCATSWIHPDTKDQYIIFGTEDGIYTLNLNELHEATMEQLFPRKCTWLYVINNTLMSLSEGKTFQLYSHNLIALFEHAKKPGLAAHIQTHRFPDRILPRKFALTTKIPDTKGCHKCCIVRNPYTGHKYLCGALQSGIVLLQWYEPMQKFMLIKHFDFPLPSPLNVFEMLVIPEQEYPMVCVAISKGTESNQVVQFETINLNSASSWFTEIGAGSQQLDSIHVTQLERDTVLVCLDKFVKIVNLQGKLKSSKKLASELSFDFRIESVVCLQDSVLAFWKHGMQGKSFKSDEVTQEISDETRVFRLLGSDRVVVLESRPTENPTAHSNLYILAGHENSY
T7 sequence (Q8NG66 whole entry): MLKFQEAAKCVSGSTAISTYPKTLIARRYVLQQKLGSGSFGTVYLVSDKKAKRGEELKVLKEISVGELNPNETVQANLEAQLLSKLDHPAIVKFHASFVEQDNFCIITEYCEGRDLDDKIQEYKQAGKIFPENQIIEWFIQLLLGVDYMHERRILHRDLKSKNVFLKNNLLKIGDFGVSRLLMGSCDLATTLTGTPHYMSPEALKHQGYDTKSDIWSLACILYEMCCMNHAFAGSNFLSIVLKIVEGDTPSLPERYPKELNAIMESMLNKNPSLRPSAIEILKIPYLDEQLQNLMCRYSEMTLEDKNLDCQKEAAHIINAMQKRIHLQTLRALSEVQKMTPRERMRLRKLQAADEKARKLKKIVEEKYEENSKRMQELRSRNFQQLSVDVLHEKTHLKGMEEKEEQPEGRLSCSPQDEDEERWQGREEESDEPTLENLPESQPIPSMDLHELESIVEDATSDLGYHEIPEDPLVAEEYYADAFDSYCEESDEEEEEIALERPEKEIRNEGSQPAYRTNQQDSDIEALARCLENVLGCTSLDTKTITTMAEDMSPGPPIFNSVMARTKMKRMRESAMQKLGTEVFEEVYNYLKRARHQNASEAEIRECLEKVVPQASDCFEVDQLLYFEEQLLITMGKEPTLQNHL
T13 sequence (P49759 whole entry): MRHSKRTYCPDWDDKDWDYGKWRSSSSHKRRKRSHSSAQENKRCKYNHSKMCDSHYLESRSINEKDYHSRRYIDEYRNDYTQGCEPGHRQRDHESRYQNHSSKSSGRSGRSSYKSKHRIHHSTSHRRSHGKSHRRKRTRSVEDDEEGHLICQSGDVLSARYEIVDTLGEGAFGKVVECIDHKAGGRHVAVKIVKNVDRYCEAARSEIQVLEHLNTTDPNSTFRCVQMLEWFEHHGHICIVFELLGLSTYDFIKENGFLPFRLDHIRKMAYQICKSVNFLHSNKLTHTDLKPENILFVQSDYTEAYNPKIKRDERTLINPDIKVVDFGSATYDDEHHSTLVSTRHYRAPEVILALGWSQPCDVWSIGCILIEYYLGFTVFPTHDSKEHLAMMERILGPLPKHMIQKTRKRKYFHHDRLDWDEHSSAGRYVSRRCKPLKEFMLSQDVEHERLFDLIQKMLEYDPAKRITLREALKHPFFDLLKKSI
T14 sequence (P52564 whole entry): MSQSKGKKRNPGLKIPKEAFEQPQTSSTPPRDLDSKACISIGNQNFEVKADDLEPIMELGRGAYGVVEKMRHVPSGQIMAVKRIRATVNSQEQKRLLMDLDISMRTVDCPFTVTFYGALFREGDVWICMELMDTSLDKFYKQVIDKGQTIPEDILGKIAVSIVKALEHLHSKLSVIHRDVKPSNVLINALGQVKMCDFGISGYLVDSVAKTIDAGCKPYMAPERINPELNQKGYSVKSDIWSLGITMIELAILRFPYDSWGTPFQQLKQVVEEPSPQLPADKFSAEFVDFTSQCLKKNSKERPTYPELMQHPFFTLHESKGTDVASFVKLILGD
T10 sequence (Q08881 whole entry): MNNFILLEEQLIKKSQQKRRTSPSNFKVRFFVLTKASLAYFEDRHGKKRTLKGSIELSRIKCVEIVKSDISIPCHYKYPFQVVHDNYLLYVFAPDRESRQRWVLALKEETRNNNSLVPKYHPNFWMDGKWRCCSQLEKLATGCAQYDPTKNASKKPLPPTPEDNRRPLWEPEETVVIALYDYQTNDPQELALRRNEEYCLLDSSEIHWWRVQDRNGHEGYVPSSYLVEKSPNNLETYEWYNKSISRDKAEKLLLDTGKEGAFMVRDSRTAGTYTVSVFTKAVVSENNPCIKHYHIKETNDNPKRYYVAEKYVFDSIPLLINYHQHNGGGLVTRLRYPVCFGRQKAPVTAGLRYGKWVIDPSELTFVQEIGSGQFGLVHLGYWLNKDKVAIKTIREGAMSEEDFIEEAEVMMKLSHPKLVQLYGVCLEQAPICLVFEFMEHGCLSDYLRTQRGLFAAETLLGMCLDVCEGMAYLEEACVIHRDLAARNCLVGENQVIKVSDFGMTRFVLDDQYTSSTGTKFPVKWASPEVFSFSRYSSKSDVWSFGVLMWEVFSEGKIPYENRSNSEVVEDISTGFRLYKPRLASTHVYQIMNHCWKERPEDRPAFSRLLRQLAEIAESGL
T9 sequence (Q9BQI3 whole entry): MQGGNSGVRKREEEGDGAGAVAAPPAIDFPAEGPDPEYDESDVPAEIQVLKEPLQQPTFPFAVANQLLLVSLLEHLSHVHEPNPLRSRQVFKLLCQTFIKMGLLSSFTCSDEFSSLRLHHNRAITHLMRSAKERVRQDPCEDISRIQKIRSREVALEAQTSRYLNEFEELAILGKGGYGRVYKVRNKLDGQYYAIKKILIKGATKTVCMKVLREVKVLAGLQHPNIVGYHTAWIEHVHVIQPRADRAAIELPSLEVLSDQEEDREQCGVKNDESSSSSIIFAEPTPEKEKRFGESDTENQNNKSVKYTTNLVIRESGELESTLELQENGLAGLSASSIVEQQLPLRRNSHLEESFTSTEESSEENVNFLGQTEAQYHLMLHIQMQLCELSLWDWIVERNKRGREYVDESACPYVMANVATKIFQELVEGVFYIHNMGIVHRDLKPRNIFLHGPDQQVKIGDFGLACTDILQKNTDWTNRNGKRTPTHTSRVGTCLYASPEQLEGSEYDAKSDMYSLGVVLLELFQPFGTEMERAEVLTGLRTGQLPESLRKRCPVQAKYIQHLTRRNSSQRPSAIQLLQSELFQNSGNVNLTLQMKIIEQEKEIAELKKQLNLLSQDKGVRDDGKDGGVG
T16 sequence (P14616 27-1297): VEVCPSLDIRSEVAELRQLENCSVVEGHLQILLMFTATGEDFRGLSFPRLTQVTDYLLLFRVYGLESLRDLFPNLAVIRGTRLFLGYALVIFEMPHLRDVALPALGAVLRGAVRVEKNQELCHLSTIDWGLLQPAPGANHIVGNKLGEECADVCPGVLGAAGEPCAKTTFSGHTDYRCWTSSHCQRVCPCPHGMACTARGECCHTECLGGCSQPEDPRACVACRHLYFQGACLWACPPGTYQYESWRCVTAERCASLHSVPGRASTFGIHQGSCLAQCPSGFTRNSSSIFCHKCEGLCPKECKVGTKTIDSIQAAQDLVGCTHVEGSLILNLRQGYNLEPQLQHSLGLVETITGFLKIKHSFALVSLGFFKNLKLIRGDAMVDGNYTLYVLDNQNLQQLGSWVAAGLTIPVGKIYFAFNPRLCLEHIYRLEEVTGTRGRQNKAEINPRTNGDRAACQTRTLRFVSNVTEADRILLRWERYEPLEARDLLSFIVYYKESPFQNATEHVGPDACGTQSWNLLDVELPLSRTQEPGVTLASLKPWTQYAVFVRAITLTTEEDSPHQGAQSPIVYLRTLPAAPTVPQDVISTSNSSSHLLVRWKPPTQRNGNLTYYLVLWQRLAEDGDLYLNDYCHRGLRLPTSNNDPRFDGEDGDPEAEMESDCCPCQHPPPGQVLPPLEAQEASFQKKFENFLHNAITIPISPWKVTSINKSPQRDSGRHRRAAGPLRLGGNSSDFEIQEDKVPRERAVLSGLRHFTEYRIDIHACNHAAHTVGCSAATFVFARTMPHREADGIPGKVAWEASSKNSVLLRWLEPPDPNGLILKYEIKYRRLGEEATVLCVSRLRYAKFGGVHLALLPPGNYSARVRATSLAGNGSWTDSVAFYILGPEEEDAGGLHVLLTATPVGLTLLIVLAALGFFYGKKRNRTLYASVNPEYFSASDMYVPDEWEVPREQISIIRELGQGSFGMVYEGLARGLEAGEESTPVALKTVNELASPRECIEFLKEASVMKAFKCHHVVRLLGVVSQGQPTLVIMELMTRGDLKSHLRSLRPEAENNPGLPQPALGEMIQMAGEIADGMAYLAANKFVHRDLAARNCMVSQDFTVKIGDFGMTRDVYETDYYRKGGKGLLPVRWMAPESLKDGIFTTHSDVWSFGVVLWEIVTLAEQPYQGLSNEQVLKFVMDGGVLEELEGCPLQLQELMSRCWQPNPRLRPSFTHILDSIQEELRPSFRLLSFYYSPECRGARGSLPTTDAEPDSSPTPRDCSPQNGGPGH

## O=C(Nc1ccc(Oc2ncnc3[nH]ncc23)cc1)Nc1ccc(Cl)c(C(F)(F)F)c1 [Compound 1, 1-(4-(1H-pyrazolo[3,4-d]pyrimidin-4-yloxy)phenyl)-3-(4-chloro-3-(trifluoromethyl)phenyl)urea]
HL-60
  IC50: > 10 µM
HeLa
  IC50: > 10 µM
Karpas-299
  IC50: > 10 µM
MCF-7
  IC50: > 10 µM
[1]; STF3a cells
  attenuation of Wnt/β-catenin signaling: very weak activity
BEL7402
  IC50: > 10 µM
U266
  IC50: > 10 µM
Raji
  IC50: > 10 µM
SMMC7721
  IC50: > 10 µM
MV4-11
  IC50: 4 nM
A549
  IC50: > 10 µM
Jurkat
  IC50: 8.72 µM

## CC(C)(C)c1cc(NC(=O)Nc2ccc(Oc3ncnc4[nH]ncc34)c(F)c2)no1 [SKLB-677, 1-(4-(1H-pyrazolo[3,4-d]pyrimidin-4-yloxy)-3-fluorophenyl)-3-(5-tert-butylisoxazol-3-yl)urea]
TESK1
  remaining binding at 10 µM: 82%
HL-60
  IC50: 8.9 µM
MAP4K5
  remaining binding at 10 µM: 2%
HeLa
  IC50: 9.45 µM
Miapaca-2
  IC50: > 10 µM
Karpas-299
  IC50: 7 µM
MCF-7
  IC50: > 10 µM
CDK7
  remaining binding at 10 µM: 3.1%
[1]; STF3A, read-out: IC50, inhibition of the Wnt/β-catenin signaling
  IC50: < 0.1 µM
EPHB3
  remaining binding at 10 µM: 0.8%
MAP3K1
  remaining binding at 10 µM: 36%
BEL7402
  IC50: > 10 µM
U266
  IC50: > 10 µM
Raji
  IC50: 7.9 µM
EPHA3
  remaining binding at 10 µM: 24%
NEK11
  remaining binding at 10 µM: 96%
NEK3
  remaining binding at 10 µM: 41%
EIF2AK1
  remaining binding at 10 µM: 96%
ITK
  remaining binding at 10 µM: 36%
YANK2
  remaining binding at 10 µM: 50%
QSK
  remaining binding at 10 µM: 91%
CLK1
  remaining binding at 10 µM: 5.8%
SMMC7721
  IC50: > 10 µM
MV4-11
  IC50: 0.079 nM
MV4-11; read-out: Cell viability IC50
  IC50: 0.079 nM
MEK6
  remaining binding at 10 µM: 62%
A549
  IC50: 6.4 µM
CAMK1G
  remaining binding at 10 µM: 48%
INSRR
  remaining binding at 10 µM: 42%
Jurkat
  IC50: 4.3 µM
CDK4-cyclinD3
  remaining binding at 10 µM: 4.8%
PRKCH
  remaining binding at 10 µM: 100%
